Our source for the chromatographic logP and pest or weed control values is patent US8946234B2, “Halogen-substituted compounds” (Bayer CropScience AG, priority 2008, dated 2015).

Data set [1] is described as follows: logP by HPLC on a C18 phase inversion column, EEC Directive 79/831 Annex V.A8, method a) (Agilent 1100, 10-95% acetonitrile in 4.25 min). Type of data set: physicochemical. Conditions: read-out: logP. The essentials: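 Reversed-phase C18 HPLC (50×4.6 mm, 1.8 micron), 55 °C, 2.0 ml/min, acetonitrile/water with formic acid. Linear gradient 10% to 95% acetonitrile over 4.25 min, then 95% for 1.25 min. logP derived from retention per EEC Directive 79/831 Annex V.A8; MS detection.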

The test system of data set [2] is Phaedon cochleariae. Briefly: Phaedon test (PHAECO spray treatment). The format is in vivo. Particulars: foliar, application rate 500 g/ha, sprayed Chinese cabbage leaf discs, mustard beetle larvae, 100% = all larvae killed, read-out: effect in %. As for the experimental part:
[table] To produce a suitable active ingredient preparation, part by weight of active ingredient is mixed with the stated amounts of solvents and emulsifier, and the concentrate is diluted to the desired concentration with emulsifier-containing water. Discs of Chinese cabbage leaves (Brassica pekinensis) are sprayed with an active ingredient preparation of the desired concentration and, after drying, populated with larvae of the mustard beetle (Phaedon cochleariae). After the desired time, the effect in % is determined. Here, 100% means that all of the beetle larvae have been killed; 0% means that no beetle larvae have been killed.

Data set [3] can be described thus: logP by HPLC on a C18 phase inversion column, EEC Directive 79/831 Annex V.A8, method b) (HP1100, 5-95% acetonitrile in 1.70 min). Conditions: HPLC phase inversion (reversed-phase) C18 column; HPLC method b), eluent acetonitrile/water with formic acid. Type of data set: physicochemical. As for the experimental part:
^b) Note regarding the determination of the log P values and mass detection: The log P values given were determined in accordance with EEC Directive 79/831 Annex V.A8 by HPLC (High Performance Liquid Chromatography) on a phase inversion column (C18). HP1100; 50*4.6 Zorbax Eclipse Plus C18 1.8 micron; eluent A: acetonitrile (0.1% formic acid); eluent B: water (0.08% formic acid); linear gradient from 5% acetonitrile to 95% acetonitrile in 1.70 min, then 95% acetonitrile for a further 1.00 min; oven temperature 55° C.; flow: 2.0 ml/min. The mass detection is carried out via the mass detector Micromass ZQ2000 from Waters.

[4] abbreviates: HPLC phase inversion (reversed-phase) C18 column, HPLC method a), eluent acetonitrile/water with formic acid.
The mark [5] stands for this setting: HPLC phase inversion (reversed-phase) C18 column, HPLC, method a).

Regarding `O=C(NC1CC1)c1cc(NC(=O)c2cnc(OCC(F)(F)F)nc2C(F)(F)F)ccc1Cl` [Ib-2], in data set [1] (setting [4]), the chromatographic logP was 2.76. For the same molecule, in data set [2], the pest or weed control at 500 g/ha is at least 80%.
For `O=C(NC1CC1)c1cc(NC(=O)c2cnc(OCC(F)(F)F)cc2C(F)(F)F)ccc1Cl` [Ij-1, N-[4-Chloro-3-(cyclopropylcarbamoyl)phenyl]-6-(2,2,2-trifluoroethoxy)-4-(trifluoromethyl)pyridine-3-carboxamide], the chromatographic logP in data set [1] (setting [4]) turned out to be 3.02. Moreover, in data set [2], the pest or weed control at 500 g/ha is at least 80%.
Take `Cn1nc(C(F)(F)C(F)(F)F)c(C(F)(F)F)c1C(=O)Nc1ccc(Cl)c(C(=O)NC2CC2)c1` [Ik-1, N-[4-Chloro-3-(cyclopropylcarbamoyl)phenyl]-1-methyl-3-(pentafluoroethyl)-4-(trifluoromethyl)-1H-pyrazole-5-carboxamide]: the chromatographic logP in data set [1] (setting [4]) and in data set [1] (setting [5]) was 3.34 in each case. Besides, the pest or weed control at 500 g/ha in data set [2] was at least 80%.
As to `O=C(NC1CC1)c1cc(NC(=O)c2cnc(Cl)nc2C(F)(F)F)ccc1Cl` [Ib-1, 2-chloro-N-[4-chloro-3-(cyclopropylcarbamoyl)phenyl]-4-(trifluoromethyl)pyrimidine-5-carboxamide], the chromatographic logP in data set [1] (setting [4]) was found to be 2.36. Further, the pest or weed control at 500 g/ha in data set [2] was at least 80%.
Take `O=C(NC1CC1)c1cc(NC(=O)c2cnc(C(F)(F)C(F)(F)F)nc2C(F)F)ccc1Cl` [Ib-27, N-[4-Chloro-3-(cyclopropylcarbamoyl)phenyl]-4-(difluoromethyl)-2-(pentafluoroethyl)pyrimidine-5-carboxamide]: the chromatographic logP in data set [1] (setting [4]) turned out to be 2.92. Besides, the pest or weed control at 500 g/ha in data set [2] was at least 80%.
In turn, `C#CCNC(=O)c1cc(NC(=O)c2c(C(F)(F)F)c(C(F)(F)C(F)(F)F)nn2C)ccc1Cl` [Ik-3, N-[4-Chloro-3-(prop-2-yn-1-ylcarbamoyl)phenyl]-1-methyl-3-(pentafluoroethyl)-4-(trifluoromethyl)-1H-pyrazole-5-carboxamide] registered a chromatographic logP in data set [3] of 3.11. Also, in data set [2], the pest or weed control at 500 g/ha was at least 80%.
`Cn1nc(C(F)(F)C(F)(F)F)c(I)c1C(=O)Nc1ccc(Cl)c(C(=O)NC2CC2)c1` [Ik-4, N-[4-Chloro-3-(cyclopropylcarbamoyl)phenyl]-1-methyl-3-(pentafluoroethyl)-4-iodo-1H-pyrazole-5-carboxamide]: the chromatographic logP turned out to be 3.16 in data set [1] (setting [4]) and 3.15 in data set [1] (setting [5]). Besides, in data set [2], the pest or weed control at 500 g/ha is at least 80%.
Consider `C=Cc1c(C(F)(F)C(F)(F)F)nn(C)c1C(=O)Nc1ccc(Cl)c(C(=O)NC2CC2)c1` [Ik-5, N-[4-Chloro-3-(cyclopropylcarbamoyl)phenyl]-1-methyl-3-(pentafluoroethyl)-4-ethenyl-1H-pyrazol-5-carboxamide], for which the chromatographic logP in data set [1] (setting [4]) and in data set [1] (setting [5]) was 3.11 in each case. The pest or weed control at 500 g/ha in data set [2] was at least 80%.
